Experimental data from patent publication US8338482B2, “Modulating notch1 signaling pathway for treating neuroendocrine tumors” (Wisconsin Alumni Research Foundation, priority 2007, dated 2012).

Columns and labels:
[1] = Serum VPA level in xenograft mice; assay type: in vivo; details: nude athymic NU/NU, mouse, ip, two hours after i.p. injection, last day, 366 mg/kg, read-out: median serum VPA level
Experimental: After confirming that VPA activates Notch1 signaling and suppresses carcinoid cell growth in vitro, we were interested in testing its efficacy in vivo. Subcutaneous human GI carcinoid tumors were developed in immunocompromised mice, which were then given daily intraperitoneal injections of VPA, and the tumors were measured every 4 days for 20 days. The tumors of the saline-treated control mice grew at a higher rate than did those of the VPA-treated animals (FIG. 28A). Indeed, the growth of the tumors in the treatment group was almost static. On the last day of the experiment, blood was drawn from each animal in the treatment group two hours after intraperitoneal injection of VPA.

BON cells = assay: Subcutaneous GI carcinoid xenograft study; assay type: in vivo, mice; details: 366 mg/kg daily i.p., 20 days
Experimental: Xenograft Studies BON cells (1×10^6) were suspended in Hanks' balanced salt solution (Invitrogen) and injected subcutaneously into the right flank of 12 male nude athymic NU/NU mice (Charles River Laboratories, Wilmington, Mass.) under anesthesia. After palpable tumors developed, the mice were divided into 2 groups of 6 animals. The control group received daily intraperitoneal (i.p.) injections of saline while the treatment group received daily i.p. injections of VPA (366 mg/kg) for 20 days. The length and width of tumors were measured with a vernier caliper every 4 days and tumor volumes were calculated using the formula, volume=width^2×length×0.52. At the end of the experiment the mice were sacrificed and the tumors were resected and frozen in liquid nitrogen. Whole tumor cell protein lysates were prepared for immunoblotting as previously described (Vaccaro A et al., In-vivo activation of Raf-1 inhibits tumor growth and development in a xenograft model of human medullary thyroid cancer. Anticancer Drugs 2006; 17:849-853). This experiment was performed in accordance with the protocols of the University of Wisconsin Medical School Animal Care and Use Committee.

concentration at 2 h [1]: 46 µg/mL
SMILES: CCCC(CCC)C(=O)O [VPA, 2-propylpentanoic acid]
growth of the tumors (BON cells): almost static | neurotoxicity (BON cells): no signs of neurotoxicity | expression of ASCL1 in resected tumors (BON cells; Western blot): decreased expression
